Each block holds one compound with its values, some of them ahead of it. Positions of bridges follow the written chain, without caps; N, C: chain ends. Non-standard residues stand in square brackets, D forms with d. Residues, ends and D or L forms follow the SMILES beside them. *: point of attachment. Ileψ(thiazoline)Cys = CC[C@H](C)[C@H](N)C1=N[C@H](C(=O)*)CS1; Sta = CC(C)C[C@H](N)[C@@H](O)CC(=O)O; dOrn = NCCC[C@@H](N)C(=O)O; Isovaleryl = CC(C)CC(=O)*
How the values were obtained:
[1] = system: endopeptidase from the skin of Xenopus laevis; experiment: Inhibitor studies: enzyme preincubated with inhibitor, then cleavage of substrate peptide read on acid gel; type: biochemical; conditions: for % INHIBITION: substrate magainin 2-amide; for effect of proteinase inhibitor on enzyme activity (in words): summary of Table 2
Procedure: Reaction buffer consisted of 20 mM Na phosphate, 50 mM NaCl final concentration. After quenching the reaction with 0.5 volume of glacial acetic acid, a 15 μl aliquot of each reaction was analyzed by acidic gel electrophoresis. […]
Inhibitor studies were conducted in the same fashion; the only difference involved first incubating the enzyme with each inhibitor tested at a particular concentration in the absence of any substrate for one hour at room temperature. Substrate was then added to the reaction and allowed to incubate for an additional hour at room temperature.
ACIDIC GEL ELECTROPHORESIS--Acidic gels (pH 4) were prepared and run as originally described (Gabriel, 1971) with several modifications. The gel solution consisted of a final concentration of 15% (v/v) acrylamide (acrylamide:bisacrylamide/37.5:1), 88 mM KOH, 3% (v/v) glacial acetic acid, 0.75% (v/v) […] (Temed), 0.375% ammonium persulfate (30 mg/ml). Before loading samples, 0.5 volume of glacial acetic acid was added, as well as 0.5 volume of 0.1% Pyronin Y loading dye. MINI PROTEAN gel apparatus (Biorad, Richmond, Calif.) were used and gels electrophoresed at 200 volts in running buffer containing 0.035M β-alanine and glacial acetic acid (2.45 ml/l), pH 4.0. Gels were stained in 0.1% (w/v) Coomassie Brilliant Blue R-250 (Sigma), 50% methanol, 50% water and destained in distilled water.

[2] = system: endopeptidase from the skin of Xenopus laevis; experiment: Substrate specificity analyses: cleavage of peptides and analogues by the purified endopeptidase (acid gel, HPLC/amino acid analysis); type: biochemical; conditions: 50 μg peptide, one hour, room temperature
Procedure: ENZYME ASSAYS--Activity was monitored by incubating 0.1-10 μl of each chromatographic fraction with 50 μg of magainin 2-amide substrate in a total volume of 100 μl for one hour at room temperature. Reaction buffer consisted of 20 mM Na phosphate, 50 mM NaCl final concentration. After quenching the reaction with 0.5 volume of glacial acetic acid, a 15 μl aliquot of each reaction was analyzed by acidic gel electrophoresis. One unit of enzyme activity is defined as the amount of enzyme required to convert 25 μg of magainin 2-amide substrate into half-peptide products under the above conditions.
Substrate specificity analyses were carried out as described above except that 50 μg of each substrate analogue under investigation was substituted for magainin 2-amide in the incubation at the same concentration.
Before loading samples, 0.5 volume of glacial acetic acid was added, as well as 0.5 volume of 0.1% Pyronin Y loading dye. […]
100 μl reactions were injected into a Beckman HPLC System Gold instrument and run on a C18 reversed phase column (4.6×220 mm, Aquapore OD-300, Applied Biosystems, Foster City, Calif.). […] Portions of the resuspended sample were injected into an amino acid analyzer with automated hydrolysis (model 420/130, Applied Biosystems, Foster City, Calif.), and numerical calculations for specific amino acids were determined using an Applied Biosystems 920A data analysis module.

[3] = inhibitor 1 mM, one unit endopeptidase preincubated one hour

Compound: CC[C@H](C)[C@H](N)C1=N[C@H](C(=O)N[C@@H](CC(C)C)C(=O)N[C@H](CCC(=O)O)C(=O)N[C@H](C(=O)N[C@H]2CCCCNC(=O)[C@H](CC(N)=O)NC(=O)[C@@H](CC(=O)O)NC(=O)[C@H](Cc3cnc[nH]3)NC(=O)[C@@H](Cc3ccccc3)NC(=O)[C@H]([C@@H](C)CC)NC(=O)[C@@H](CCCN)NC2=O)[C@@H](C)CC)CS1 [Bacitracin, bacitracin] ({Ileψ(thiazoline)Cys}-L[dE]IK[dOrn]I[dF]H[dD]N; lactam 4-C)
% INHIBITION ([1]; inhibitor 1 mg/ml): 0%
effect of proteinase inhibitor on enzyme activity (in words) [1]: no effect on endoproteolysis

% INHIBITION ([1]; inhibitor 100 μm, one unit endopeptidase preincubated one hour): 0%
effect of proteinase inhibitor on enzyme activity (in words) [1]: no effect on enzyme activity
Compound: CC(C)CC(=O)N[C@H](C(=O)N[C@H](C(=O)N[C@@H](CC(C)C)[C@@H](O)CC(=O)N[C@@H](C)C(=O)N[C@@H](CC(C)C)[C@@H](O)CC(=O)O)C(C)C)C(C)C [Pepstatin, pepstatin] (Isovaleryl-VV[Sta]A[Sta]-OH)

Compound: CC(=O)N[C@@H](CC(C)C)C(=O)N[C@@H](CC(C)C)C(=O)N[C@H](C=O)CCCNC(=N)N [Leupeptin, leupeptin]
% INHIBITION [1, 3]: 0%
effect of proteinase inhibitor on enzyme activity (in words) [1]: no effect on enzyme activity

Compound: CC(C)C[C@H](NC(=O)[C@H]1O[C@@H]1C(=O)O)C(=O)NCCCCN=C(N)N [E-64, N-[N-(L-3-trans-carboxyoxiran-2-carbonyl)-L-leucyl]-agmatine]
% INHIBITION ([1]; inhibitor 300 μM): 0%
effect of proteinase inhibitor on enzyme activity (in words) [1]: no effect on enzyme activity

Compound: c1cnc2c(c1)ccc1cccnc12 [1,10-Phenanthroline, 1,10-phenanthroline]
% INHIBITION ([1]; inhibitor 0.2 mM): 70%
% INHIBITION ([1]; inhibitor 2 mM): 100%
% INHIBITION ([1]; inhibitor 20 mM): 100%
effect of proteinase inhibitor on enzyme activity (in words) [1]: substantially inhibited enzyme activity

Compound: tosyl-L-phenylalanine chloromethyl ketone [TPCK]
% INHIBITION [1, 3]: 0%
effect of proteinase inhibitor on enzyme activity (in words) [1]: no effect on enzyme activity

Compound: K11R: magainin 1 analogue constituting the replacement of all lysines with arginines
cleavage of the peptide by the endopeptidase (in words) [2]: effectively served as a substrate

% INHIBITION ([1]; inhibitor 0.5 mM): 25%
% INHIBITION ([1]; inhibitor 5 mM): 25%
% INHIBITION ([1]; inhibitor 50 mM): 50%
effect of proteinase inhibitor on enzyme activity (in words) [1]: substantially inhibited enzyme activity
Compound: O=C(O)CN(CCN(CC(=O)O)CC(=O)O)CC(=O)O [EDTA, ethylenediaminetetraacetic acid]

% INHIBITION ([1]; inhibitor 1 μM): 0%
% INHIBITION ([1]; inhibitor 100 μM): 0%
effect of proteinase inhibitor on enzyme activity (in words) [1]: no effect on endoproteolysis
Compound: CC(C)C[C@H](NP(=O)(O)O[C@@H]1O[C@@H](C)[C@H](O)[C@@H](O)[C@H]1O)C(=O)N[C@@H](Cc1c[nH]c2ccccc12)C(=O)O [Phosphoramidon, phosphoramidon]

Compound: O=S(=O)(F)Cc1ccccc1 [PMSF, phenylmethanesulfonyl fluoride]
% INHIBITION ([1]; inhibitor 10 mM): 0%
effect of proteinase inhibitor on enzyme activity (in words) [1]: no effect on enzyme activity

Compound: CC[C@H](C)[C@H](NC(=O)CN)C(=O)NCC(=O)N[C@@H](C)C(=O)N[C@H](C(=O)N[C@@H](CC(C)C)C(=O)N[C@@H](CCCCN)C(=O)N[C@H](C(=O)N[C@@H](CC(C)C)C(=O)N[C@H](C(=O)N[C@H](C(=O)NCC(=O)N[C@@H](CC(C)C)C(=O)N1CCC[C@H]1C(=O)N[C@@H](C)C(=O)N[C@@H](CC(C)C)C(=O)N[C@H](C(=O)N[C@@H](CO)C(=O)N[C@@H](Cc1c[nH]c2ccccc12)C(=O)N[C@H](C(=O)N[C@@H](CCCCN)C(=O)N[C@@H](CCCNC(=N)N)C(=O)N[C@@H](CCCCN)C(=O)N[C@@H](CCCNC(=N)N)C(=O)N[C@@H](CCC(N)=O)C(=O)N[C@@H](CCC(N)=O)C(N)=O)[C@@H](C)CC)[C@@H](C)CC)[C@@H](C)O)[C@@H](C)O)C(C)C)C(C)C [melittin]
inhibition of cleavage of magainin 2 ([1]; preincubation with tenfold molar excess of peptide, substrate magainin 2): approximately 25%
cleavage of the peptide by the endopeptidase (in words) [2]: do not serve as substrates

From patent US5518912A, “Endopeptidase” (priority 1993, dated 1996)
